Laboratory results taken from ChEMBL document CHEMBL1125530, “1,4-Dihydropyridines as antagonists of platelet activating factor. 1. Synthesis and structure-activity relationships of 2-(4-heterocyclyl)phenyl derivatives” (J Med Chem, 1992).

Biological target: Platelet-activating factor receptor (Mus musculus) (UniProt Q62035)
Assay: Ability to protect mice from lethal effects of an injection of PAF in vivo.
Format: functional, organism-based
Conditions: Mus sp.

Sequence of Platelet-activating factor receptor (Mus musculus) (Q62035 whole entry): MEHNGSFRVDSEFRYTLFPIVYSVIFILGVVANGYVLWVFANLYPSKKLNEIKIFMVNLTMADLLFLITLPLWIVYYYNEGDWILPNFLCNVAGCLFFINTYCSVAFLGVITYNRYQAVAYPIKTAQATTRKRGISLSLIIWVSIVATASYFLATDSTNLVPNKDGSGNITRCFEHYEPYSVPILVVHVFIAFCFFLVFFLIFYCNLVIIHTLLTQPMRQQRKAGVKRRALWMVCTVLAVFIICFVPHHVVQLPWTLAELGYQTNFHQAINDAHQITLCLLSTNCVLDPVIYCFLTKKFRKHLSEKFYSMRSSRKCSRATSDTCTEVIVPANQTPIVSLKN

Structure (SMILES)	ED50 [mg/kg]
CCOC(=O)C1=C(c2ccc(-c3c(C)nc4ccccn34)cc2)NC(C)=C(C(=O)Nc2ccccn2)C1c1ccccc1Cl (stereo not given)	92
CCOC(=O)C1=C(c2ccc(-n3c(C)nc4cnccc43)cc2)NC(C)=C(C(=O)O)C1c1ccccc1Cl (stereo not given)	4.7
CCOC(=O)C1=C(c2ccc(-c3cccnc3C)cc2)NC(C)=C(C(=O)Nc2ccccn2)C1c1ccccc1Cl (stereo not given)	3.7
CCOC(=O)C1=C(c2ccc(-n3c(C)nc4cnccc43)cc2)NC(C)=C(C(=O)Nc2ccccn2)C1c1ccc(C#N)cc1 (stereo not given)	1.2
CCOC(=O)C1=C(c2ccc(-n3c(C)nc4cnccc43)cc2)NC(C)=C(C(=O)Nc2ccccn2)C1c1cccnc1 (stereo not given)	16
CCOC(=O)C1=C(c2ccc(-n3c(C)nc4cnccc43)cc2)NC(C)=C(C(=O)Nc2ccccn2)C1c1ccccc1Cl (stereo not given)	0.26
CCOC(=O)C1=C(c2ccc(-n3c(C)nnc3C)cc2)NC(C)=C(C(=O)Nc2ccccn2)C1c1ccccc1Cl (stereo not given)	34
CCOC(=O)C1=C(c2ccc(-n3c(C)nc4cnccc43)cc2)N=C(C)/C(=C(/O)OCc2ccccc2)C1c1ccccc1Cl (stereo not given)	2
CCOC(=O)C1=C(c2ccc(-c3c(C)nc4sccn34)cc2)NC(C)=C(C(=O)Nc2ccccn2)C1c1ccccc1Cl (stereo not given)	5.4
CCOC(=O)C1=C(c2ccc(-n3c(C)nc4cnccc43)cc2)NC(C)=C(C(N)=O)C1c1ccccc1Cl (stereo not given)	1
CCOC(=O)C1=C(c2ccc(-n3c(C)nc4ccncc43)cc2)NC(C)=C(C(=O)Nc2ccccn2)C1c1ccccc1Cl (stereo not given)	16
CCOC(=O)C1=C(c2ccc(-n3c(C)nc4cnccc43)cc2)NC(C)=C(C(=O)Nc2ccccn2)C1c1ccccc1OC(F)(F)F (stereo not given)	0.2
CCOC(=O)C1=C(c2ccc(-n3cc(C)nc3C)cc2)NC(C)=C(C(=O)Nc2ccccn2)C1c1ccccc1Cl (stereo not given)	3
CCOC(=O)C1=C(c2ccc(-n3c(C)nc4cnccc43)cc2)NC(C)=C(C(=O)Nc2ccccn2)C1c1csc2ccccc12 (stereo not given)	0.6
CCOC(=O)C1=C(c2ccc(-n3c(C)nc4cnccc43)cc2)NC(C)=C(C(=O)Nc2ccccn2)C1c1cccc2c1OCO2 (stereo not given)	0.5
CCOC(=O)C1=C(c2ccc(-n3c(C)nc4cnccc43)cc2)NC(C)=C(C(=O)Nc2ccccn2)C1c1cccnc1Cl (stereo not given)	13
CCOC(=O)C1=C(c2ccc(-n3c(C)nc4cnccc43)cc2)N=C(C)/C(=C(/O)OC(C)(C)C)C1c1ccccc1Cl (stereo not given)	2
CCOC(=O)C1=C(c2ccc(-n3c(C)nc(C)c3C)cc2)NC(C)=C(C(=O)Nc2ccccn2)C1c1ccccc1Cl (stereo not given)	10.5
CCOC(=O)C1=C(c2ccc(-n3ccnc3C)cc2)NC(C)=C(C(=O)Nc2ccccn2)C1c1ccccc1Cl (stereo not given)	22
CCOC(=O)C1=C(c2ccc(-n3c(C)nc4cnccc43)cc2)N=C(C)/C(=C(/O)OC)C1c1ccccc1Cl (stereo not given)	1.5
CCOC(=O)C1=C(c2ccc(-n3c(C)nc4cnccc43)cc2)NC(C)=C(C(=O)Nc2ccccn2)C1c1ccccn1 (stereo not given)	4.1
CCOC(=O)C1=C(c2ccc(-n3c(C(F)(F)F)nc4cnccc43)cc2)NC(C)=C(C(=O)Nc2ccccn2)C1c1ccccc1Cl (stereo not given)	25
Cc1nnc2n1-c1sc(CCC(=O)N3CCOCC3)cc1C(c1ccccc1Cl)=NC2	2.03
CCOC(=O)C1=C(c2ccc(-n3c(C)nc4cnccc43)cc2)N=C(C)/C(=C(/O)OCCOC)C1c1ccccc1Cl (stereo not given)	0.16
CCOC(=O)C1=C(c2ccc(-n3c(C)nc4cnccc43)cc2)N=C(C)/C(=C(/O)OC2CCCCC2)C1c1ccccc1Cl (stereo not given)	4.7
CCOC(=O)C1=C(c2ccc(-c3sc(C)nc3C)cc2)NC(C)=C(C(=O)Nc2ccccn2)C1c1ccccc1Cl (stereo not given)	7.4
CCOC(=O)C1=C(c2ccc(-n3c(C)nc4cnccc43)cc2)NC(C)=C(C(=O)NC(C)(C)C)C1c1ccccc1Cl (stereo not given)	2.1
CCOC(=O)C1=C(c2ccc(-n3c(C)nc4c(C)nc(C)cc43)cc2)NC(C)=C(C(=O)Nc2ccccn2)C1c1ccccc1Cl (stereo not given)	0.3
CCOC(=O)C1=C(c2ccc(-n3c(C)nc4cccnc43)cc2)NC(C)=C(C(=O)Nc2ccccn2)C1c1ccccc1Cl (stereo not given)	23
CCOC(=O)C1=C(c2ccc(-n3c(CC)nc4cnccc43)cc2)NC(C)=C(C(=O)Nc2ccccn2)C1c1ccccc1Cl (stereo not given)	10.5
